How the values were obtained:
Type in all cases: biochemical
KDM4B (JMJD2B) = target: T1, KDM4B (JMJD2B) (Homo sapiens, UniProt O94953); assay: Histone lysine demethylase AlphaLISA assay, KDM4B; details: read-out: KDM4B HDME Inhibition IC50
T1 construct: 2-500; purchased BPS; host or cells: Bac (baculovirus system)
T1 sequence (O94953 2-500): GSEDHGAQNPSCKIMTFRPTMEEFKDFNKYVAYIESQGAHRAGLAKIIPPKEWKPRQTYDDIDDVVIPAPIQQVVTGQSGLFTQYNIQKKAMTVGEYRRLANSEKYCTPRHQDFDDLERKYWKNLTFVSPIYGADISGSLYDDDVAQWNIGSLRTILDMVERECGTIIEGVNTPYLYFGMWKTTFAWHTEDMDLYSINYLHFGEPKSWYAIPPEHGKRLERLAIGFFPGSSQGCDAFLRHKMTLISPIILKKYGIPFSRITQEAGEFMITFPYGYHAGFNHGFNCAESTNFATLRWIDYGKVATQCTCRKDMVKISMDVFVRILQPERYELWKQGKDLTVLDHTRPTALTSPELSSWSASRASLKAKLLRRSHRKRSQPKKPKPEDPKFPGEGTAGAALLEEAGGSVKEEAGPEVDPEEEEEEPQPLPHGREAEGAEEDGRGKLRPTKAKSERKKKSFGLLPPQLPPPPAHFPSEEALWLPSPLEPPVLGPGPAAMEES
Protocol: (§1) Assays are performed analogously to the protocol described by PerkinElmer (Roy et al. PerkinElmer Technical Note: AlphaLISA #12, April 2011)
(§2) Enzymes are dissolved in enzyme buffer and incubated for 10 min before being added to 3% DMSO solutions of compounds in enzyme buffer. Incubated for another 10 minutes, before substrate solution is added and the reaction mixture is incubated at room temperature. 10 μL acceptor beads, suspended in Epigenetic Buffer (Perkin Elmer AL008) from stock, are added and the suspension is incubated in the dark at room temperature, before a suspension of streptavidin donor beads (Perkin Elmer 6760002) in Epigenetic Buffer is added. After incubation at room temperature in the dark the plates are read.
BK9M3: Biotin-ARTKQTAR(KMe3)STGGKAPRKQ-NH2 (Caslo, Denmark) […]
(§3) Substrate Solution: Substrate, 25 μM L-Asc, and 10 μM α-KG in Buffer A.

KDM5C (JARID1C) = target: T2, KDM5C (JARID1C) (Homo sapiens, UniProt P41229); assay: Histone lysine demethylase AlphaLISA assay, KDM5C; details: read-out: KDM5C HDME Inhibition IC50
T2 construct: 2-1560; purchased BPS; host or cells: Bac (baculovirus system)
Protocol: as §1
as §2, with “read. […]” for “read.”
H3K4M3B: H-ART(Kme3)QTARKSTGGKAPRKQLA-NH-Biotin (Caslo, Denmark) […]
as §3

KDM5B (PLU-1) = target: T3, KDM5B (PLU-1) (Homo sapiens, UniProt Q9UGL1); assay: Histone lysine demethylase AlphaLISA assay, KDM5B; details: read-out: KDM5B HDME Inhibition IC50
T3 sequence (Q9UGL1 1-809): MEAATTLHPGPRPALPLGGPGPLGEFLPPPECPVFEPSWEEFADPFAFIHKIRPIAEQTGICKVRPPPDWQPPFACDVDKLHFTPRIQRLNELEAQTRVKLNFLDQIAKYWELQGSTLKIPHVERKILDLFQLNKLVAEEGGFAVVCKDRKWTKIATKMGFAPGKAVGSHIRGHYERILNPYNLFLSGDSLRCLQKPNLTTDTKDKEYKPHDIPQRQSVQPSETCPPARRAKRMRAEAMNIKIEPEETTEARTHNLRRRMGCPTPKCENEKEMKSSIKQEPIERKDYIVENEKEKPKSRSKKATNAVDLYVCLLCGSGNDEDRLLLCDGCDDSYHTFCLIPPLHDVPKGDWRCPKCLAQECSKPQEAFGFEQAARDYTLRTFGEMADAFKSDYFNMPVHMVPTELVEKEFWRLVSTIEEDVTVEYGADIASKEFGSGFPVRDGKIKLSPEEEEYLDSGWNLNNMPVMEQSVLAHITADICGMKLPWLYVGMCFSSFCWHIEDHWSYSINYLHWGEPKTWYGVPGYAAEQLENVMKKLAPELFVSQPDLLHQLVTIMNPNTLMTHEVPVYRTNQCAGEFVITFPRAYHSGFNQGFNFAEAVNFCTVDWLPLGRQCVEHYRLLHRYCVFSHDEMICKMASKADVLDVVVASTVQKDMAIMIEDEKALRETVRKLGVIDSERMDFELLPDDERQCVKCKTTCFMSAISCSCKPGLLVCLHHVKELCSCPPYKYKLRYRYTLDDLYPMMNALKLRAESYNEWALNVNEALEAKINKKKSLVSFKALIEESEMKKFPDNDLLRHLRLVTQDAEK
How it was run: (§4)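 Enzyme 10 min pre-incubation; + compound (3% DMSO soln) 10 min; + biotin-H3 methyl-Lys peptide, 25 μM L-Asc, 10 μM α-KG, RT. Read: AlphaLISA acceptor beads, then streptavidin donor beads, RT, dark.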

KDM6A (UTX) = KDM6A (UTX) (Homo sapiens, UniProt O15550); assay: Histone lysine demethylase AlphaLISA assay, KDM6A; details: read-out: KDM6A HDME Inhibition IC50
How it was run: as §4

KDM6B (JMJD3) = target: T4, KDM6B (JMJD3) (Homo sapiens, UniProt O15054); assay: Histone lysine demethylase AlphaLISA assay, KDM6B; details: read-out: KDM6B HDME Inhibition IC50
T4 construct: 1043-end; purchased BPS; host or cells: Bac (baculovirus system)
Protocol: as §1
as §2, with “read. […]” for “read.”
BK27M3: Biotin-ATKAAR(Kme3)SAPATGGVKKPHRY-NH2? (Caslo, Denmark) […]
as §3

Chain of KDM6A (UTX) (O15550 919-1401): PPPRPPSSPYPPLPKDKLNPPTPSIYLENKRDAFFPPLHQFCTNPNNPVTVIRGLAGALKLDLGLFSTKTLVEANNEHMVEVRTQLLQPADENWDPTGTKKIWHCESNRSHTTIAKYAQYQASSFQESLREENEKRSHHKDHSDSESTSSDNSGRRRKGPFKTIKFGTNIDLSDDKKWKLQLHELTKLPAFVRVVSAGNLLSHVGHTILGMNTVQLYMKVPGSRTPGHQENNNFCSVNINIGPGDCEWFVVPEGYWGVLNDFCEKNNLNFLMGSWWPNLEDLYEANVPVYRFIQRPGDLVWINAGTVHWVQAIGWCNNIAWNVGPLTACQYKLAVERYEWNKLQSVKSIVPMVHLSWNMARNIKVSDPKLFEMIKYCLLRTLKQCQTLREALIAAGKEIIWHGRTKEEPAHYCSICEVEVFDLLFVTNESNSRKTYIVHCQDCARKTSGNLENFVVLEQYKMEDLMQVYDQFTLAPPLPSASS
T2 sequence (P41229 2-1560): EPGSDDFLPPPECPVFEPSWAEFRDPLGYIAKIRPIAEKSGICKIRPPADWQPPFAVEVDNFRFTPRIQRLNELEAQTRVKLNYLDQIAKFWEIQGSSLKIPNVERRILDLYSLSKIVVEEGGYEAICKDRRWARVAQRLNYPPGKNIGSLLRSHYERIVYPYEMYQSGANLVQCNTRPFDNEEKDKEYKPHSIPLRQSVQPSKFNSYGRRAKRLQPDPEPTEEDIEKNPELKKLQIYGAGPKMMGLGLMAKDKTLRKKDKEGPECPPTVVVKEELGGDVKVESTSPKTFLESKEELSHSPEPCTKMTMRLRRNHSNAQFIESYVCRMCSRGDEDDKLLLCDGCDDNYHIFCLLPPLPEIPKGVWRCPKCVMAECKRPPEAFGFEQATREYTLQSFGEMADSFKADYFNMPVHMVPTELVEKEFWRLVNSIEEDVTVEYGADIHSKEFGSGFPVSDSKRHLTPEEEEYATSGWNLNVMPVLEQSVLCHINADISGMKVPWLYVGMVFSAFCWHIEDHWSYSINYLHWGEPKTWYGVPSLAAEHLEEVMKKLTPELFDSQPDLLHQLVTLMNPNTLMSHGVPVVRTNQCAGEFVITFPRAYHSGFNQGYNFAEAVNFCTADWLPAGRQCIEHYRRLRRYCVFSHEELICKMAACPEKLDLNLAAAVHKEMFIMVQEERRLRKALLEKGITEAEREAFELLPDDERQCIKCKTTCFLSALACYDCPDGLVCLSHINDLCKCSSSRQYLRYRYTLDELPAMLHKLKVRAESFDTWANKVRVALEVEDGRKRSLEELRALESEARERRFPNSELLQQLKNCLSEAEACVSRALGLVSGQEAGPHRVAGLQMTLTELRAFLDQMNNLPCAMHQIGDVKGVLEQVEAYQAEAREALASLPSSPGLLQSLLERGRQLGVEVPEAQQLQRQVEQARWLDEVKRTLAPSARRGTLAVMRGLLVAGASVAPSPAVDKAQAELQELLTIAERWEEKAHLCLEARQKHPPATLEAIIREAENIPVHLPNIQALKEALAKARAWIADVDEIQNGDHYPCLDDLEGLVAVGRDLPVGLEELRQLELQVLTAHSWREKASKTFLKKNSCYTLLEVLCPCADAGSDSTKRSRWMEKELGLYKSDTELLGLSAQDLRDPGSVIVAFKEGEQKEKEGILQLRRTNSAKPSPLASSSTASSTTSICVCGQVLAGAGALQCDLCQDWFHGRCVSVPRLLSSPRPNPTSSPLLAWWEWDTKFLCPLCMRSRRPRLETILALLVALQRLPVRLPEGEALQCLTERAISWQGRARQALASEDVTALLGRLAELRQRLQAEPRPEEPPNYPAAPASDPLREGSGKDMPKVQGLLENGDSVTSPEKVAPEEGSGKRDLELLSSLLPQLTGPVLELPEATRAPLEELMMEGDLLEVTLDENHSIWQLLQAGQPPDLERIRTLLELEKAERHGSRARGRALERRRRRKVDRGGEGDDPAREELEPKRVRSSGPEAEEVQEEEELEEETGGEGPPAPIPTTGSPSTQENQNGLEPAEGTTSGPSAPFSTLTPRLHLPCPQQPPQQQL
T4 sequence (O15054 1043-1682 isoform O15054-1 limits assumed): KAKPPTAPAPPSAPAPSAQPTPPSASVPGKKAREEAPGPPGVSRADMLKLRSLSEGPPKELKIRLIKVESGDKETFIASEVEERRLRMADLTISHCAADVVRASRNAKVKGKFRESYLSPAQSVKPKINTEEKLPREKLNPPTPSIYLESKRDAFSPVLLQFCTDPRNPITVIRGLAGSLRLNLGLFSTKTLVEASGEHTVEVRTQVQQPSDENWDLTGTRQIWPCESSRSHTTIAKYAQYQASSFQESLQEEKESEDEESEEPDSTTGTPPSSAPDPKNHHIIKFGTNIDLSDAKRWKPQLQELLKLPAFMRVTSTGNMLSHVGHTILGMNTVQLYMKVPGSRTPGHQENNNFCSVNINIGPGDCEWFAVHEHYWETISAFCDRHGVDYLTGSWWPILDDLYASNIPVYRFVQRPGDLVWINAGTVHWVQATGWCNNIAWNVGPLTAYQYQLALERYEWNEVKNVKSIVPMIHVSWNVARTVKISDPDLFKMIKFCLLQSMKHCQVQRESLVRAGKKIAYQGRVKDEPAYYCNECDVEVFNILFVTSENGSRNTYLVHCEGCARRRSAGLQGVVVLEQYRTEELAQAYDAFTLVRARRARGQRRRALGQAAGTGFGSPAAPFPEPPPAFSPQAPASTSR

Row | Structure (SMILES) | IC50 (KDM4B (JMJD2B)) [nM] | IC50 (KDM5C (JARID1C)) [nM] | IC50 (KDM5B (PLU-1)) [nM] | IC50 (KDM6A (UTX)) [nM] | IC50 (KDM6B (JMJD3)) [nM]
1 | CCN(CC)CCCCNCc1cc(CNC(=O)C(F)(F)F)ccn1 [Compound 1, N-{[2-({[4-(diethylamino)butyl]-amino}methyl)pyridin-4-yl]methyl}-2,2,2-trifluoroacetamide] | < 250 | 250 to 2500 | 250 to 2500 | > 2500 | > 2500
2 | CN(C)CCCNCc1cc(CN)ccn1 [Compound 3, [2-({[3-(dimethylamino)propyl]-amino}methyl)pyridin-4-yl]methanamine] | < 250 | < 250 | 250 to 2500 | > 2500 | > 2500
3 | CCN(CCN(C)C)C(=O)CNCc1cc(CN)ccn1 [Compound 4, 2-({[4-(aminomethyl)pyridin-2-yl]methyl}amino)-N-[2-(dimethylamino)ethyl]-N-ethylacetamide] | < 250 | < 250 | < 250 | > 2500 | > 2500
4 | CCN(CC)CCCCN(Cc1cc(CNC(=O)C(F)(F)F)ccn1)C(=O)C(F)(F)F [Compound 6, N-[4-(diethylamino)butyl]-- 2,2,2-trifluoro-N-({4-[(trifluoroacetamido)-methyl]pyridin-2-yl}methyl)acetamide] | < 250 | > 2500 | > 2500 | > 2500 | > 2500
5 | CN(C)CCCCCNCc1cc(CN)ccn1 [Compound 8, [2-({[5-(dimethylamino)pentyl]-amino}methyl)pyridin-4-yl]methanamine] | > 2500 | < 250 | < 250 | > 2500 | > 2500
6 | COc1ccccc1CN1CCC(NC(=O)CNCc2cc(CN)ccn2)CC1 [Compound 9, 2-({[4-(aminomethyl)pyridin-2-yl]methyl}amino)-N-{1-[(2-methoxyphenyl)methyl]-piperidin-4-yl}acetamide] | > 2500 | < 250 | 250 to 2500 | > 2500 | > 2500
7 | CCCNCc1cc(CNC2CC2)ccn1 [Compound 12, N-({2-[(propylamino)methyl]-pyridin-4-yl}methyl)-cyclopropanamine] | < 250 | > 2500 | 250 to 2500 | > 2500 | > 2500
8 | CN(C)C(=O)CNCc1cc(CNCC#N)ccn1 [Compound 13, 2-{[(4-{[(cyanomethyl)amino]-methyl}pyridin-2-yl)methyl]amino}-N,N-dimethylacetamide] | > 2500 | > 2500 | 250 to 2500 | > 2500 | > 2500
9 | CN(C)C(=O)CNCc1cc(CNCCF)ccn1 [Compound 14, 2-{[(4-{[(2-fluoroethyl)amino]-methyl}pyridin-2-yl)methyl]amino}-N,N-dimethylacetamide] | 250 to 2500 | 250 to 2500 | 250 to 2500 | > 2500 | > 2500
10 | CN(C)CCNCc1ccnc(CNCC(=O)N(C)C)c1 [Compound 15, 2-({[4-({[2-(dimethylamino)ethyl]-amino}methyl)pyridin-2-yl]methyl}amino)-N,N-dimethylacetamide] | 250 to 2500 | 250 to 2500 | < 250 | > 2500 | > 2500
11 | c1ccc(CN2CCC[C@H]2CNCc2cc(CNCC3CC3)ccn2)cc1 [Compound 16, {[(2S)-1-benzylpyrrolidin-2-yl]methyl}[(4-{[(cyclopropylmethyl)-amino]methyl}pyridin-2-yl)methyl]amine] | > 2500 | 250 to 2500 | 250 to 2500 | > 2500 | > 2500
12 | CNCc1ccnc(CNCCCN(C)Cc2ccccc2)c1 [Compound 17, benzyl(methyl){3-[({4-[(methylamino)methyl]-pyridin-2-yl)methyl)-amino]propyl}-amine] | 250 to 2500 | < 250 | < 250 | > 2500 | > 2500
13 | CN(C)CCNCc1cc(CNC(C#N)C2CC2)ccn1 (stereo not drawn) [Compound 21, 2-cyclopropyl-2-({[2-({[2-(dimethylamino)ethyl]-amino}methyl)pyridin-4-yl]methyl}amino)-acetonitrile] | > 2500 | > 2500 | > 2500 | > 2500 | > 2500
14 | CC(C#N)NCc1ccnc(CNCCCN(C)C)c1 (stereo not drawn) [Compound 22, 2-({[2-({[3-(dimethylamino)propyl]-amino}methyl)pyridin-4-yl]methyl}amino)-propanenitrile] | 250 to 2500 | < 250 | 250 to 2500 | > 2500 | > 2500
15 | N#CCNCc1ccnc(CNCCCCN(Cc2ccccc2)C2CC2)c1 [Compound 23, 2-[({2-[({4-[benzyl(cyclopropyl)-amino]butyl}amino)-methyl]pyridin-4-yl}methyl)amino]-acetonitrile] | > 2500 | < 250 | 250 to 2500 | > 2500 | > 2500
16 | CNC(C#N)c1ccnc(CNCCCN(C)C)c1 (stereo not drawn) [Compound 24, 2-[2-({[3-(dimethylamino)propyl]-amino}methyl)pyridin-4-yl]-2-(methylamino)-acetonitrile] | < 250 | < 250 | < 250 | > 2500 | > 2500
17 | CCN(CCN(C)C)C(=O)CNCc1cc(CNC(=O)C(F)(F)F)ccn1 [Compound 25, N-[(2-{[({[2-(dimethylamino)ethyl]-(ethyl)carbamoyl}-methyl)amino]methyl}-pyrtdin-4-yl)methyl]-2,2,2-trifluoroacetamide] | > 2500 | 250 to 2500 | 250 to 2500 | > 2500 | > 2500
18 | CN(C)CCC/N=C/c1ccnc(CNCCCN(C)C)c1 [Compound 37, [3-(dimethylamino)propyl]-({4-[{[3-(dimethylamino)propyl]-imino}methyl]pyridin-2-yl}methyl)amine] | 250 to 2500 | < 250 | < 250 | – | > 2500
19 | CN(C)CCCCCNCc1cc(C=O)ccn1 [Compound 114, 2-({[5-(dimethylamino)-pentyl]amino}methyl)-pyridine-4-carbaldehyde] | 250 to 2500 | < 250 | < 250 | – | > 2500

Reference: patent publication US9650339B2, “Inhibitors of histone demethylases” (Gilead Sciences, Inc., priority 2013, dated 2017)
